Results published in patent US20030229922A1, “Materials and methods for the modification of plant cell wall polysaccharides” (GENESIS RESEARCH AND DEVELOPMENT CORPORATION LTD., priority 1998, published 2003).
Like-named read-outs stand apart in the source and are kept apart here.

Experiments:
[1] = target: T1, Eucalyptus grandis UGP (UDP-glucose pyrophosphorylase), SEQ ID NO: 79 (DNA; protein SEQ ID NO: 103) (Eucalyptus grandis, UniProt B3VDY8); assay: UGP enzyme assay (purified recombinant protein); type: biochemical; conditions: E. grandis UGP
T1 construct: wild type
T1 sequence (B3VDY8 entry or part of it): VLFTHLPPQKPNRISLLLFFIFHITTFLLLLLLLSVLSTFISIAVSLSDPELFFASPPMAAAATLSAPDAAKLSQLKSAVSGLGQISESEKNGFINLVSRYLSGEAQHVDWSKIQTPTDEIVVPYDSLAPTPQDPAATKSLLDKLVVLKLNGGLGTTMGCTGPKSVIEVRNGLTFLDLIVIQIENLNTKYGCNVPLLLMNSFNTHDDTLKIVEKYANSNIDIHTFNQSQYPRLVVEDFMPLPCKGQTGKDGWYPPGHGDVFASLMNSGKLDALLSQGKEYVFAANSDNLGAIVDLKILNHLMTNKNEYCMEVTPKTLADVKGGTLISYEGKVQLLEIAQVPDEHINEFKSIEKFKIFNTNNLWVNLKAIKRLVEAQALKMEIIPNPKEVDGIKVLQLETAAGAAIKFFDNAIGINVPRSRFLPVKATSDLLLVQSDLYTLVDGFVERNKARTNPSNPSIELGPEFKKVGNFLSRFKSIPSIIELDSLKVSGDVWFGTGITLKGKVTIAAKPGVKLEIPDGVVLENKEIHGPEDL
Source text: Sense constructs containing sequences including the coding regions for UGP (SEQ ID NO: 79) and SUS (SEQ ID NO: 105) from Eucalyptus grandis, and UGP (SEQ ID NO: 80) from Pinus radiata were inserted into the expression vector pET16b (Clontech Laboratories Inc, Palo Alto, Calif.). The resulting constructs were transformed into E. coli XL1-Blue (Stratagene) and induced to produce recombinant protein by the addition of IPTG. Purified proteins were obtained using Ni^2+ column chromatography (Janknecht et al., Proc. Natl. Acad. Sci. USA, 88:8972-8976, 1991).
Enzyme assays for UGP were performed using published methods (Peng and Chang, FEBS Lett. 329:153-158, 1993).

[2] = tested on: S. tuberosum UGP (Katsube et al.); conditions: cited from earlier work
[3] = tested on: S. tuberosum UGP (Nakano et al.); conditions: cited from earlier work
[4] = tested on: V. radiata SUS (sucrose synthase) (Delmer et al.); conditions: SEM n.a.; cited from earlier work

Nc1ncnc2c1ncn2[C@@H]1O[C@H](COP(=O)(O)OP(=O)(O)OP(=O)(O)O)[C@@H](O)[C@H]1O [ATP]
KM^ATP [1]: no activity | KM^ATP [2]: no activity | KM^ATP [3]: no activity

OC[C@H]1O[C@@](CO)(O[C@H]2O[C@H](CO)[C@@H](O)[C@H](O)[C@H]2O)[C@@H](O)[C@@H]1O [Sucrose]
Km [4]: 16700 µM

O=c1ccn([C@@H]2O[C@H](COP(=O)(O)OP(=O)(O)OP(=O)(O)O)[C@@H](O)[C@H]2O)c(=O)[nH]1 [UTP]
Km ([2]; read-out: KM^UTP, SEM n.a.): 76 µM | Km ([3]; read-out: KM^UTP, SEM n.a.): 170 µM

O=P(O)(O)O[C@H]1O[C@H](CO)[C@@H](O)[C@H](O)[C@H]1O [G1P]
Km ([2]; read-out: KM^G1P, SEM n.a.): 130 µM | Km ([3]; read-out: KM^G1P, SEM n.a.): 180 µM
